{"source": "patent US20060046968A1", "about": "“Prodrug substituted benzoxazoles as estrogenic agents” (priority 2004, published 2006)", "assay_type_in_all_cases": "in vivo", "key": {"[1]": {"tested_on": "Male HLA-B27 rats", "test": "HLA rat test for inflammatory bowel disease: stool character (3 = diarrhea; 2 = soft stool; 1 = normal stool)", "settings": "Study C, oral 20 mg/kg once per day (10 mg/kg earlier)"}, "[2]": {"tested_on": "Male HLA-B27 rats", "test": "HLA-B27 rat test for inflammatory bowel disease: histological scoring of colon", "settings": "for Fibrosis (0-2) / Inflammation (0-3) / Lesion depth (0-2) / Total score / Ulceration (0-2): colon histology", "method": "Representative metabolites of compounds of the invention were evaluated in the HLA rat standard pharmacological test procedure, which emulates inflammatory bowel disease in humans. The following briefly describes the procedure used and results obtained. […] Louis) and water. Stool quality was observed daily and graded according to the following scale: Diarrhea=3; soft stool=2; normal stool=1. At the end of the study, serum was collected and stored at −70° C. A section of colon was prepared for histological analysis and an additional segment was analyzed for myeloperoxidase activity. In Study A, rats (22-26 weeks old) were dosed subcutaneously once per day for seven days with one of the regimens listed below. […] Histological analysis. Colonic tissue was immersed in 10% neutral buffered formalin. Each specimen of colon was separated into four samples for evaluation. The formalin-fixed tissues were processed in a Tissue-Tek® vaccum infiltration processor (Miles, Inc; West Haven, Conn.) for paraffin embedding. The samples were sectioned at 5 μm and then stained with hematoxylin and eosin (H&E) for blinded histological evaluations using a scale modified after Boughton-Smith. After the scores were completed, the samples were unblinded, and data were tabulated and analyzed by ANOVA linear modeling with multiple mean comparisons. Sections of colonic tissue were evaluated for several disease indicators and given relative scores."}, "[3]": {"tested_on": "Male HLA-B27 rats", "test": "HLA-B27 rat model of arthritis: joint scores", "settings": "Study 1, oral 20 mg/kg once per day (10 mg/kg earlier)"}, "[4]": {"tested_on": "Male HLA-B27 rats", "test": "HLA-B27 rat model of arthritis: joint histology", "settings": "Study 1; oral 46 days; 10 mg/kg days 1-24, then 20 mg/kg", "method": "At the end of the study, the rats are euthanized with CO2, hindlimbs removed at necropsy and fixed in 10% buffered formalin, and the tarsal joints decalcified and embedded in paraffin. Histologic sections are stained with Hematoxylin and Eosin or […] Green stain. Slides are coded so that the examiner is blinded to the treatment groups. Synovial tissue from tarsal joints is evaluated based on synovial hyperplasia, inflammatory cell infiltration, and pannus formation [Poole and Coombs, International Archives of Allergy & Applied Immunology 54: 97-113 (1977)], as outlined below. [table] […] [table] Representative metabolites of compounds of the invention were evaluated in the HLA-B27 rat standard pharmacological test procedure, which emulates arthritis in humans. The following briefly describes the procedure used and results obtained. Male HLA-B27 rats were obtained from Taconic and provided unrestricted access to a food (PMI® LabDiet 5001) and water. Joint scores and histology were evaluated as described above for the Lewis rat model of adjuvant-induced arthritis. Study 1: […]"}, "[5]": {"settings": "Study C, oral 7 weeks, 10 mg/kg days 1-24, then 20 mg/kg"}}, "note": "Marks after values point to notes of the source that are not given here."}
{"smiles": "C=Cc1cc(O)cc2nc(-c3ccc(O)c(F)c3)oc12", "note": "[Example 24, 2-(3-FLUORO-4-HYDROXYPH ENYL)-7-VI NYL-1,3-BENZOXAZOL-5-OL]", "values": [{"measurement": "Stool Character (group's average score)", "setting": "[1]; Day 39", "value": 1.75}, {"measurement": "Stool Character (group's average score)", "setting": "[1]; Day 40", "value": 1.5}, {"measurement": "Stool Character (group's average score)", "setting": "[1]; Day 41", "value": 1.75}, {"measurement": "Stool Character (group's average score)", "setting": "[1]; Day 42", "value": 1.5}, {"measurement": "Stool Character (group's average score)", "setting": "[1]; Day 43", "value": 1.5}, {"measurement": "Stool Character (group's average score)", "setting": "[1]; Day 44", "value": 1.5}, {"measurement": "Stool Character (group's average score)", "setting": "[1]; Day 45", "value": 1.25}, {"measurement": "Stool Character (group's average score)", "setting": "[1]; Day 46", "value": 1.25}, {"measurement": "Total disease score versus vehicle", "setting": "[2]; Study C, oral", "value": "significantly reduced total disease score"}, {"measurement": "Fibrosis (0-2), mean ± SD", "setting": "[2]; [5]", "value": "0*"}, {"measurement": "Inflammation (0-3), mean ± SD", "setting": "[2]; [5]", "value": "0.69 ± 0.24"}, {"measurement": "Lesion depth (0-2), mean ± SD", "setting": "[2]; [5]", "value": "0*"}, {"measurement": "Total score, mean ± SD", "setting": "[2]; [5]", "value": "0.69 ± 0.24"}, {"measurement": "Ulceration (0-2), mean ± SD", "setting": "[2]; [5]", "value": "0*"}, {"measurement": "Fibrosis (0-2)", "setting": "[2]; 1 mg/kg s.c., second study", "value": 0.75}, {"measurement": "Inflammation (0-3)", "setting": "[2]; 1 mg/kg s.c., second study", "value": "1.63*"}, {"measurement": "Lesion depth (0-2)", "setting": "[2]; 1 mg/kg s.c., second study", "value": "0.88*"}, {"measurement": "Total score", "setting": "[2]; 1 mg/kg s.c., second study", "value": "4.4*"}, {"measurement": "Ulceration (0-2)", "setting": "[2]; 1 mg/kg s.c., second study", "value": 1.25}, {"measurement": "Fibrosis (0-2)", "setting": "[2]; 10 mg/kg s.c., second study", "value": "0.50*"}, {"measurement": "Inflammation (0-3)", "setting": "[2]; 10 mg/kg s.c., second study", "value": "1.63*"}, {"measurement": "Lesion depth (0-2)", "setting": "[2]; 10 mg/kg s.c., second study", "value": "0.69*"}, {"measurement": "Total score", "setting": "[2]; 10 mg/kg s.c., second study", "value": "3.6*"}, {"measurement": "Ulceration (0-2)", "setting": "[2]; 10 mg/kg s.c., second study", "value": "0.81*"}, {"measurement": "Fibrosis (0-2)", "setting": "[2]; 50 mg/kg s.c.", "value": "0*"}, {"measurement": "Inflammation (0-3)", "setting": "[2]; 50 mg/kg s.c.", "value": "1.05*#"}, {"measurement": "Lesion depth (0-2)", "setting": "[2]; 50 mg/kg s.c.", "value": "0.2#"}, {"measurement": "Total score", "setting": "[2]; 50 mg/kg s.c.", "value": "1.5*#"}, {"measurement": "Ulceration (0-2)", "setting": "[2]; 50 mg/kg s.c.", "value": "0.25*#"}, {"measurement": "Measurements of tissue injury, colon histology", "setting": "[2]; composite of two subcutaneous dosing studies", "value": "effective in reducing several measurements of tissue injury"}, {"measurement": "Joint inflammation score", "setting": "[3]; Day 29", "value": 1.5}, {"measurement": "Joint inflammation score", "setting": "[3]; Day 30", "value": 0.5}, {"measurement": "Joint inflammation score", "setting": "[3]; Day 31", "value": 0.5}, {"measurement": "Joint inflammation score", "setting": "[3]; Day 32", "value": 1.25}, {"measurement": "Joint inflammation score", "setting": "[3]; Day 33", "value": 2}, {"measurement": "Joint inflammation score", "setting": "[3]; Day 34", "value": 2.25}, {"measurement": "Joint inflammation score", "setting": "[3]; Day 35", "value": 2}, {"measurement": "Joint inflammation score", "setting": "[3]; Day 36", "value": 2.25}, {"measurement": "Joint inflammation score", "setting": "[3]; Day 37", "value": 2}, {"measurement": "Joint inflammation score", "setting": "[3]; Day 38", "value": 2.75}, {"measurement": "Joint inflammation score", "setting": "[3]; Day 39", "value": 2.25}, {"measurement": "Joint inflammation score", "setting": "[3]; Day 40", "value": 1.75}, {"measurement": "Joint inflammation score", "setting": "[3]; Day 41", "value": 2}, {"measurement": "Joint inflammation score", "setting": "[3]; Day 42", "value": 2.5}, {"measurement": "Joint inflammation score", "setting": "[3]; Day 43", "value": 4.75}, {"measurement": "Joint inflammation score", "setting": "[3]; Day 44", "value": 3}, {"measurement": "Joint inflammation score", "setting": "[3]; Day 45", "value": 2.75}, {"measurement": "Joint inflammation score", "setting": "[3]; Day 46", "value": 3.25}, {"measurement": "Mankin score (mean ± SD)", "setting": "[4]", "value": "3.5 ± 1.8"}, {"measurement": "Synovitis score (mean ± SD)", "setting": "[4]", "value": "3.17 ± 0.3"}]}
